Patent publication US20050209278A1, “Piperidinyl- and piperazinyl-sulfonylmethyl hydroxamic acids and their use as protease inhibitors” (priority 2002, published 2005)

Each compound was assayed against T1, MMP-9 (Homo sapiens, UniProt P14780) (assay: In vitro MMP inhibition, IC50 determination (fluorogenic substrate I)). Settings: value in parentheses; read-out: MMP-9 (IC-50).
T1 construct: made in house; host or cells: MMP-9-transfected HT1080 cells (spent media)
Assay type: biochemical

T1 sequence (P14780 107-707 limits assumed): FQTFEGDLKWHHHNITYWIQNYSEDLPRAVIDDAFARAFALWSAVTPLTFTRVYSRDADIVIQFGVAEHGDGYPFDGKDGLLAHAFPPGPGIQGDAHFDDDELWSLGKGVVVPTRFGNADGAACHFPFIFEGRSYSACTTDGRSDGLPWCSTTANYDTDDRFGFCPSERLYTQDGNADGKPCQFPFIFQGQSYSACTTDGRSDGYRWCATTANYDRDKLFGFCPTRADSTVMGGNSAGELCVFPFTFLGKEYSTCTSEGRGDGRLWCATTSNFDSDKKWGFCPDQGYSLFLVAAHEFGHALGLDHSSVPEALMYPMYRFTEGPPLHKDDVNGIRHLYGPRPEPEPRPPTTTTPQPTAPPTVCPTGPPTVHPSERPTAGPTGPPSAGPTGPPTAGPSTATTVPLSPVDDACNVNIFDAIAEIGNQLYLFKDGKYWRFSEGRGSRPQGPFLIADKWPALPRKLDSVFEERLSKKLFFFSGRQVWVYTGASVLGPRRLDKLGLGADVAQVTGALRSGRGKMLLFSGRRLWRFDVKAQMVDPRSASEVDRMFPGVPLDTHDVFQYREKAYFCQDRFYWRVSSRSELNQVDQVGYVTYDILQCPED

IC50 | SMILES
1.42 nM | CCCCOc1ccc(N2CCN(S(=O)(=O)C3(C(=O)NO)CCN(C(=O)CCC)CC3)CC2)cc1 [Example 290]

Same assay, conditions: value in parenthesis; read-out: MMP-9 (IC-50)

SMILES | IC50
CCOCCCc1ccc(N2CCN(S(=O)(=O)C3(C(=O)NO)CCN(CCOC)CC3)CC2)cc1 [Example 179] | 3.39 nM
COCCN1CCC(C(=O)NO)(S(=O)(=O)N2CCN(c3ccc(C#N)cc3)CC2)CC1 [Example 186] | 55.8 nM
COCCN1CCC(C(=O)NO)(S(=O)(=O)N2CCN(c3ccc(CCC4CCCC4)cc3)CC2)CC1 [Example 182] | 1.72 nM
CCOc1ccc(N2CCN(S(=O)(=O)C3(C(=O)NO)CCN(CCOC)CC3)CC2)cc1F [Example 184] | 2.79 nM
CCC(CC)Cc1ccc(N2CCN(S(=O)(=O)C3(C(=O)NO)CCN(CCOC)CC3)CC2)cc1 [Example 188] | 33.7 nM
CCc1cnc(N2CCN(S(=O)(=O)C3(C(=O)NO)CCN(CCOC)CC3)CC2)nc1 [Example 187] | 155 nM

Second part, the compound after the results:

IC50 | SMILES
2.25 nM | COCCCc1ccc(N2CCN(S(=O)(=O)C3(C(=O)NO)CCN(CCOC)CC3)CC2)cc1 [Example 180]
1.19 nM | CCCOc1ccc(N2CCN(S(=O)(=O)C3(C(=O)NO)CCN(CCOC)CC3)CC2)cc1F [Example 185]
1.67 nM | COCCN1CCC(C(=O)NO)(S(=O)(=O)N2CCN(c3ccc(CC4CCC4)cc3)CC2)CC1 [Example 183]
45.6 nM | COCCN1CCC(C(=O)NO)(S(=O)(=O)N2CCN(c3ccc(CC4CCCCC4)cc3)CC2)CC1 [Example 181]
